According to patent publication US20170145363A1, “MICROFLUIDIC DUAL-WELL DEVICE FOR HIGHTHROUGHPUT SINGLE-CELL CAPTURE AND CULTURE” (NATIONAL HEALTH RESEARCH INSTITUTES, priority 2015, published 2017):

Test system: A549 cells
Experiment: EGF promoted colony formation assay of A549 single cells in DW device
Format: cell-based, human
Settings: 200 ng mL-1 EGF in DMEM with 10% FBS, 7 days of culture, colonies >15 cells per culture-well, control medium 12.10%
Description: In the EGF promoted colony formation assay, 200 μL of A549 cells at a concentration of 2.2-2.5×10^6 cells per mL was injected into the DW device manually and allowed to settle for 2 min, followed by injecting DMEM with 20% FBS and 1% antibiotics into the microchannel immediately to wash off excess cells in the channel at a flow rate of 600 μL min^−1 for 30 s. Subsequently, the inlet and outlet holes were sealed and the device was flipped upside down to obtain a single cell in a culture-well. The device was then placed in a humidified incubator at 37° C. with 5% CO2 as described above. After 1 day of culture, one of the device (for the control experiment) was injected with 300 μL of DMEM containing 10% FBS and 1% antibiotics to replace the original medium. […] Colonies with cell numbers higher than 15 cells in a culture-well were scored as cell colonies.
Due to its high single-cell capture efficiency and large space of culture wells, the DW device represents an attractive tool for in vitro single-cell colony formation assays in which the growth of individual cells is analyzed. […] The portability and transparency of the DW device allowed the cells in the device to be conveniently analyzed with a conventional microscope during cell culture experiments (FIGS. 7A-D). […]

Substance: EGF: epithelial growth factor (EGF, PeproTech, USA) supplied in the culture medium at 200 ng mL-1
- colony forming efficiency: 17.56%
